In data set [1] the test system is tumour lines HeLa, HL-60, Jukat, U937 and PC3. The experiment in a line: Tetrazolium-based cell viability assay, tumour lines. Details: species or system human. As to conditions: range over HeLa, HL-60, Jurkat, 48 h, MTT (adherent) or MTS/PMS (suspension), estimated, three independent experiments. The procedure: Human epithelial cervical cancer (HeLa), leukemic monocyte lymphoma (U937), prostate cancer (PC3), promyelocytic leukemia (HL-60), leukemic T cell lymphoblast (Jurkat) cells were cultured in RPMI-1640 medium supplemented with 5–10% (v/v) fetal calf serum (FCS), 100 U/mL penicillin and 100 μg/mL streptomycin (Invitrogen, Carlsbad, CA). Human umbilical vein […] cell (HUVEC) cells were cultured in M199 medium (Invitrogen) supplemented with 20% (v/v) FCS, 40 μg/mL gentamicin, 4 μg/mL endothelial cell growth factor, 4 μg/mL L-glutamine and 135 μg/mL heparin, in 0.1% (w/v) gelatin-coated Corning CELLBIND flask (Corning Life Sciences, Acton, MA). […]
Different concentrations of HBD-3 were added to cells seeded in 96-well plates in appropriate complete medium. […] After 48 h, cell viability was determined using 3-(4,5-dimethylthiazol-2-yl)-2,5-diphenyltetrazolium bromide (MTT) (Sigma-Aldrich, MO) for adherent cells (HeLa, PC3, HUVEC, AHDF, CASMC) or 3-(4,5-dimethylthiazol-2-yl)-5-(3-carboxymethoxyphenyl)-2-(4-sulfophenyl)-2H-tetrazolium (MTS) (Promega, Madison, WI) coupled with phenzine methosulfate (PMS) (Promega) for suspension cells (U937, HL-60, Jurkat) prior to absorbance measurement at 570 nm and […], respectively. Absorbance readings of untreated control wells was designated as 100% cell viability.

Data set [2] concerns U937 cells. Put plainly: Flow cytometry-based PI uptake assay, U937. In kind it is cell-based, human. The note with it: 25 μM HBD-3, 37°C, 30 min, serum-free medium with 0.1% BSA. The procedure: (§1) Cells suspended at 1×10^6 cells/mL in serum-free medium containing 0.1% (w/v) bovine serum albumin (BSA) (Sigma-Aldrich) were treated with HBD-3 at 37°C for 30 min. Nucleic acid stain propidium iodide (PI) was then added to a final concentration of 1 μg/mL and cells subjected to flow cytometry analysis using BD FACSCanto II Flow Cytometer and BD FACSDiva Software v6.1.1 (BD Biosciences, San Jose, CA). For each flow cytometry reading, 10,000 cells, gated appropriately based on forward scattering and side scattering, were recorded. The resultant data were processed using FlowJo software (Tree Star, San Carlos, CA) to determine PI-positivity, which reflects the level of membrane permeabilisation. For lipid inhibition assays, 15 μM HBD-3 was pre-incubated with 50 μM synthetic lipids, including L-α-phosphatidic acid (PA), L-α-phosphatidylcholine (PC), L-α-phosphatidylethanolamine (PE), L-α-phosphatidylserine (PS), L-α-phosphatidylinositol-4-phosphate (PI(4)P), L-α-phosphatidylinositol-3,5-bisphosphate (PI(3,5)P2), L-α-phosphatidylinositol-4,5-bisphosphate (PI(4,5)P2) and L-α-phosphatidylinositol-3,4,5-trisphosphate (PI(3,4,5)P)3. All lipids were sourced from Avanti Polar Lipids, Alabaster, AL. […]

Data set [3] relates to HUVEC cells. Put plainly: Flow cytometry-based PI uptake assay, HUVEC. Type of data set: cell-based, human. As to conditions: 25 μM HBD-3, 37°C, 30 min, serum-free medium with 0.1% BSA. The procedure: as §1
Data set [4] concerns primary cell type (HUVEC, AHDF, CASMC). Put plainly: Flow cytometry-based PI uptake assay, primary cell types. Details: species or system human. The note with it: 50 μM HBD-3 (highest dose tested), each primary cell type, 37°C, 30 min. The procedure:
as §1

A short description of data set [5]: Protein-lipid overlay assay, Membrane strip. The note with it: 1 μg/mL protein, immunodetection, densitometry. Type of data set: binding. On the procedure: Protein-lipid overlay assays using Membrane strip™ or PIP strip™ (Echelon Biosciences, Salt Lake City, UT) were performed using 1 μg/mL proteins as described previously. Lipid binding was immunodetected using a combination of rabbit anti-HBD-3 IgG (50 μg/mL) and horseradish peroxidase-conjugated donkey-anti-rabbit Ig (10 μg/mL) antibodies. Chemiluminescence signal intensity was quantitated by densitometry analysis using ImageJ (National Institutes of Health, Bethesda, MD; http://imagej.nih.gov/ij/).

Data set [6] concerns plasma membrane PI(4,5)P2 of U937 cells. The experiment in a line: Anti-PI(4,5)P2 antibody blocking assay. Type of data set: cell-based, human. The note with it: 15 μM defensins 30 min or 10 mM neomycin 3 h; cells fixed, saponin-lysed, FITC-conjugated anti-PI(4,5)P2 IgM, flow cytometry. The procedure:
U937 cells at 1×10^6 cells/mL were treated with 10 mM neomycin for 3 h and/or 15 μM defensins for 30 min in serum-free RPMI 1640 medium containing 0.1% BSA, followed by 20 min fixation with 2% (v/w) paraformaldehyde (Sigma-Aldrich), 10 min lysis with 0.5% (w/v) saponin (Sigma-Aldrich), and then 30 min blocking with 3% (w/v) BSA. Three 5-min centrifugal washes with PBS at 500 g were also included between steps. FITC-conjugated mouse anti-PI(4,5)P2 IgM (Echelon Biosciences) or IgM control (GeneTex, Irvine, CA) was subsequently used at 10 μg/mL for 30 min prior to flow cytometry analysis.

Data set [7] is described as follows: ATP-encapsulated liposome leakage assay, PC only. The note with it: bioluminescence, normalised to HEPES and Triton X-100. On the procedure:
Liposomes were generated as described previously using natural PI(4,5)P2 (porcine brain, in chloroform:methanol:water at 20:9:1 molar ratio) and PC (chicken egg, in chloroform) purchased from Avanti Polar Lipids. PC only or PC:PI(4,5)P2 (95:5 molar ratio) solutions were dried under a stream of nitrogen gas followed by overnight vacuum-drying. The lipid films were rehydrated to a final concentration of 5 mg/mL in 20 mM HEPES (pH 7.2) containing 5 mg/mL adenosine-5-triphosphate disodium salt (ATP; Sigma-Aldrich) at 37°C for 1 h. After three subsequent cycles of freezing (liquid nitrogen) and thawing (25°C), multilamellar liposomes were extruded 15–20 times through a mini-extruder (Avanti Polar Lipids). Free ATP was removed by three centrifugal washes with 20 mM HEPES at 16,500 g prior to the ATP release assay. Liposomes treated with 1% Triton X-100 were included as positive control and assigned as total lysis, whereas HEPES only control served as background reading. The level of ATP release at a particular time point was determined by quotient of the corrected reading (after subtracting background) of the sample at that time point and corrected reading of total lysis, as per the following equation: % Lysist=Samplet−HEPESt/Triton X−HEPES×100

Data set [8] in a line: Transmission electron microscopy of fibril formation with PI(4,5)P2. The note with it: in vitro, data not shown.

Where no end group is shown, it is not given here.

Consider “human β-defensin 3 (GIINTLQKYYCRVRGGRCAVLSCLPKEEQIGKCSTRGRKCCRRKK; not fully specified; cysteine pairing not given here; UniProt P81534 23-67, looked up) [HBD-3, human β-defensin 3, cationic antimicrobial peptide, recombinantly expressed in P. pastoris]”, for which the IC50 in data set [1] was 8 to 20 µM. For the same substance, the PI-positive cells entry in data set [2] is “approximately 85%”; in data set [3], 14.5%. Further, in data set [4], the “cells permeabilised (PI-positive)” value is “less than 20%”. The “relative binding intensity to lipids on Membrane strip” value in data set [5] was “greater relative binding intensity toward phospholipids”. The “blocking of anti-PI(4,5)P2 antibody binding (overall fluorescence intensity vs untreated control)” value in data set [6] is given as “significant decrease of overall fluorescence intensity”. In data set [7], the “ATP release from ATP-encapsulated liposomes” value is recorded as “minimally induced ATP release”. In addition, in data set [8], the “oligomerisation to fibrils on binding PI(4,5)P2” value is “not observed”.

These data come from article PMC4811302, “Human β-defensin 3 contains an oncolytic motif that binds PI(4,5)P2 to mediate tumour cell permeabilisation” (Oncotarget, 2015).
